Reference: patent US9671340B2, “Measurement method for determining an organ function” (SMARTDYELIVERY GMBH, priority 2010, dated 2017)
Like-named read-outs stand apart in the source and are kept apart here.

Key:
[1] = rat, in vivo
Procedure: (§1) Male WISTAR rats (12-16 weeks old, body mass 400±50 g; Harlan Laboratories, Horst, Netherlands) were used in this study. All tests were carried out in accordance with the German laws for the protection of animals and with the approval of the regional animal protection commission in Bad Langensalza, Thuringia, Germany. The body temperature was kept constant at 37° during the surgical preparation and the experimental tests, in each case using a warming plate and a heatable specimen stage of the microscope. All preparations were carried out under aseptic conditions.
A special model of polymicrobial sepsis with some modifications was used, which was originally described by Bauhofer (Bauhofer et al., 2004, 2006; Lorenz et al., 2004). With this model the sepsis is induced by peritoneal contamination and infection (PCI).
A standardised human stool inoculum was used for the PCI. Immediately after collection, the stool sample was diluted 1:1 with pre-reduced thioglycolate-bouillion, containing 10% sterile barium sulphate and 10% glycerol, and was then homogenised under anaerobic conditions. Lastly, the stool samples were stored at −80° C. until use. Before the inoculation, the stool samples were diluted 1:4 in 0.9% NaCl. The inoculum was analysed microbiologically in order to establish the number of strains after storage. The rats were instrumented 24 h before the PCI and anaesthetised using Desflurane (Baxter, Munich, Germany) via a facemask. A jugular vein catheter (polyethylene, autoclave-sterilised, OD:1.0 mm, Portex, UK) was used for the fluid replacement and was tunneled subcutaneously as far as the approach to the nape of the neck. The catheter was mounted on a hinge-jointed retaining system, which enabled unrestricted movement in the cage after recovery from the anaesthetic.
In introductory studies, the dose of the inoculum was adapted such that a 100% mortality rate was achieved within 40 h. The animals were assigned randomly to the control group (sham) or the PCI group. With short ether anaesthesia, the inoculum was injected intraperitoneally into the pelvis region using a 21 G cannula. The animals in the control group (sham) received 0.9% NaCl in the same amount. After the procedure, both groups received fluid replacement (10 ml/kg/KG/h, Jonosteril®, Fresenius Kabi GmbH, Germany) as well as food and water ad libitum.
The plasma disappearance rate (PDR) and the bile excretion of the dyes DY635 (Dyomics, Jena, Germany) and indocyanine green as a comparative experiment (ICG; Pulsion, Munich, Germany) were determined in vivo.
The animals were anaesthetised 15 h after sepsis or induction of the control group.
An arterial catheter was used for haemodynamic monitoring. A midline and right subcostal laparotomy was performed and the ductus choledochus was provided with a polyethylene catheter (polyethylene, autoclave-sterilised, OD:1.0 mm, Portex, UK) for the collection of bile via a cannula. The wound was then closed using Mersilene 2-0 (Ethicon, Hamburg, Germany) and the anaesthetisation was maintained.
The dye was administered via a jugular vein catheter. The blood samples and bile samples were taken from the zero point and then every 15 min for a period of 60 min. Blood losses caused by these blood samples were adequately counter balanced by infusions. The haemodynamic monitoring was carried out continuously.

[2] = In vivo determination of hepatocellular and canalicular transport by intravital epifluorescence microscopy of the liver; set-up: species or system WISTAR rats; conditions: periportal and perivenous areas, up to 35 min after application
Procedure: Changes to the hepatocellular uptake and the canalicular elimination were measured 15 h after sepsis or induction of the control group by in vivo imaging of the exclusively hepatocytically eliminated dye indocyanine green (Pulsion, Munich, Germany) and of DY635 using an inverted epiflourescence microscope (AxioObserver® Z1; Zeiss, Jena, Germany), equipped with a computer-controlled, highly-precise scanning platform (Marzhäuser, Wetzlar, Germany).
775 nm to 805 nm excitation and 845 nm to 855 nm emission bandpass filters were used to image the dye indocyanine green. […]
In order to locate 16 regions (regions of interest: ROI) for the in vivo imagings of the dye, the liver surface was rasterised; 8 pericentral and 8 periportal regions were established and the exact position thereof was determined on the computer-controlled scanning stage using AxioVision® software and stored so that the predefined ROI were accessible during future experiments. […]
Before the indocyanine green or DY635 was added, base line images of the defined ROI were recorded using the AxioVision® multi-channel module (×40/0.6 lens, 365 nm to 395 nm excitation and 445 nm to 450 nm emission bandpass filter and 775 nm to 805 nm excitation and 845 nm to 855 nm emission bandpass filter). […]

cultivated hepatocytes = experiment: Cytotoxicity, survival of cultivated hepatocytes 24 h after addition of dye (MTT assay); format: cell-based
Procedure: FIG. 6: comparison of the cytotoxicity between ICG and DY635. In each case the survival of cultivated hepatocytes 24 h after addition of different concentration of the dyes is shown (MTT assay).

[3] = In vivo determination of kidney function, imaging of dye excretion via the kidneys; set-up: species or system WISTAR rats
Procedure: as §1
Further experiments were carried out to ascertain kidney function using DY652 (data not shown here) and DY647.
The kidney tissue and the widely ramified kidney vascular system can be seen in the recorded images.
FIG. 7: in vivo imaging of the excretion of DY647 via the kidneys.

[4] = Water solubility of the dye; format: physicochemical
[5] = cited from earlier work
[6] = at clinically conventional dose; cited from earlier work

CC(C)(C)c1cc(/C=C/C=C2/N(CCCCCC(=O)O)c3ccc(S(=O)(=O)O)cc3C2(C)C)c2cc3c4c(c2[o+]1)CCCN4CCC3 [DY635]
plasma concentration of the dye immediately after application, septic vs control animals ([1]; male, Wistar): Less DY635 in the plasma was traceable in the healthy animals than in the sick animals
time to complete uptake of the dye into the hepatocytes ([1]; male, Wistar): ≤ 15 min
accumulation of the dye in healthy animals, compared with ICG [1]: accumulates much less considerably in healthy animals than ICG
detection of the dye in the kidneys or in the urine [1]: could not be detected
speed of canalicular excretion into the bile fluid, compared with ICG [1]: excreted more quickly
decrease of specific fluorescence intensity (dye concentration) in the organ tissue, compared with ICG [2]: decreases much more sharply
cytotoxicity in comparison with ICG (cultivated hepatocytes): very low cytotoxicity

CCN1/C(=C/C=C/C=C/C2=[N+](CC)c3ccc(S(=O)(=O)O)cc3C2(C)C)C(C)(CCCC(=O)O)c2cc(S(=O)(=O)O)ccc21 (stereo not drawn) [DY647, 2-{(1E,3E)-5-(3-(3-carboxy-propyl)-1-ethyl-3-methyl-5-sulfo-1,3-dihydro-indol-(2E)-ylidene]-penta-1,3-dienyl)-1-ethyl-3,3-dimethyl-5-sulfo-3H-indolium]
location of the dye in the kidneys ([3]; 5 minutes after application): can be seen in the vascular system of the kidneys
location of the dye in the kidneys ([3]; after 90 minutes): has left the vascular system and can be seen in the kidney tubules
detection of the dye in urine after application ([3]; after application): detected in urine
route of excretion ([3]; in vivo measurements of the kidneys): excreted selectively via the kidneys
solubility in water [4]: water-soluble

CC1(C)C(/C=C/C=C/C=C/C=C2\N(CCCCS(=O)(=O)O)c3ccc4ccccc4c3C2(C)C)=[N+](CCCCS(=O)(=O)[O-])c2ccc3ccccc3c21 [ICG, indocyanine green]
dye concentration in the bile after 60 minutes [1]: high ICG values could still be measured
plasma concentration of the dye immediately after application, septic vs control animals [1]: Less ICG can be traced in the plasma of the septic animals
metabolism and extrahepatic elimination ([5]; current state of knowledge): neither metabolised nor eliminated extrahepatically
time until the dye appears unconjugated in the bile ([5]; following intravenous injection (0.1-0.5 mg/kg KG)): approximately 8 min
binding to plasma proteins ([5]; following intravenous injection, within a short period of time): fully bonded to plasma proteins
toxicity [6]: negligible toxicity
